Source: US9901592B2 (priority 2008, dated 2018)
In brackets after ≈: the same amount, converted by molar mass. Like-named read-outs stand apart in the source and are kept apart here.

Legend:
M. pneumoniae = assay: microbe, parasite or virus in culture; format: cell-based; settings: Mycoplasmoides pneumoniae
U. parvum = assay: MIC testing in 10B broth (colour change); format: cell-based, Ureaplasma parvum; settings: U. parvum (10 isolates)
N. meningitidis = assay: MIC, CLSI broth microdilution, invasive isolates; format: cell-based; settings: Neisseria meningitidis; 62 N. meningitidis isolates
Protocol: Example. […] Colonization of the nasopharynx (NP) by NM can lead to invasive meningococcal disease. Chemoprophylaxis is used to eradicate NP colonization and prevent transmission to nonimmune contacts. […] 62 isolates (91.9% blood culture) of NM were collected from 29 medical centers in North and South America and Europe (1997-2008). […] Serological identification was performed for serogroups (SGs) B, C, Y and W135.

S. pneumoniae [1] = format: cell-based
[2] = system: intraphagocytic L. pneumophila ATCC 33153 (THP-1); format: cell-based; settings: L. pneumophila ATCC 33153, 48 h
S. pyogenes 3029 = assay: Intraperitoneal (IP) mouse infection model (ED50); format: in vivo; settings: Streptococcus pyogenes, MAC-R S. pyogenes 3029
S. aureus = assay: mouse systemic infection model (PD50); format: in vivo
S. pyogenes = assay: MIC of the strains of the mouse systemic infection model; format: cell-based; settings: Streptococcus pyogenes
S. pneumoniae [3] = assay: mouse subcutaneous abscess model; format: in vivo; settings: for average log10 CFU/gram of abscess: S. pneumoniae 1629, 10 mg/Kg PO
Protocol: Example. Efficacy was evaluated in several infection models. […] PD50s were determined 24 hr post infection. CEM-101 was further evaluated in a subcutaneous abscess mouse model against S. pneumoniae. CD-1 female mice were infected via SC injection of bacteria mixed with cyclodextran beads. Two hr post infection, mice received a single oral dose of CEM 101 or control agents. At 48 hr post dose, mice were euthanized, abscesses aseptically removed and bacteria enumerated. CFU per abscess was determined and compared to the untreated control. […] 24 hr post treatment, the thighs were processed and CFU/gram of thigh determined.
Example. Mouse Subcutaneous Abscess. Bacteria were prepared from an overnight plate culture by re-suspending in saline and adjusting the suspension to a 0.1 OD at 625 nm of a 1:10 dilution. The adjusted bacterial suspension was mixed 1:2 with cyclodextran beads prepared as per package instructions. The right flanks of the mice were shaven and injected subcutaneously with 0.2 ml of the bacterial inoculum. Two hours post infection mice were treated via oral gavage with either test article or control drug. 48 hours post infection, mice were euthanized, abscesses aseptically removed, homogenized, serially diluted and plated on bacterial growth agar. After overnight incubation, colonies were counted and CFUs/gram of abscess were determined.
Example. The ability of CEM101 to reduce the microbial load in abscess infection model was also assessed against S. pneumoniae isolates.

M. catarrhalis = assay: microbe, parasite or virus in culture; format: cell-based
[4] = system: viridans group streptococci (VGS); format: cell-based; settings: VGS (51)
H. influenzae ATCC 49247 = assay: post-antibiotic effect (PAE) testing

Compound: CC[C@H]1OC(=O)[C@@](C)(F)C(=O)[C@H](C)[C@@H](OC2OC(C)CC(N(C)C)C2O)[C@@](C)(OC)C[C@@H](C)C(=O)[C@H](C)[C@H]2N(CCCCn3cc(-c4cccc(N)c4)nn3)C(=O)O[C@]12C (stereo partly drawn) [CEM-101, 11-N-4-(3-aminophenyl)-[1,2,3]triazol-1-yl]-butyl}-5-desosaminyl-3-oxo-2-fluoro-erythronolide A,-11,12-cyclic carbamate]
- MIC50 (M. pneumoniae): 0.032 ng/mL (≈ 0.0379 nM)
- MIC Range (U. parvum): 2 to 31 ng/mL
- MIC50 (U. parvum; Ureaplasma parvum, read-out: MIC50): 8 ng/mL (≈ 9.47 nM)
- MIC90 (U. parvum; Ureaplasma parvum, read-out: MIC90): 0.016 µg/mL (≈ 18.9 nM)
- MIC50 (N. meningitidis): ≤ 0.015 µg/mL
- MIC90 (N. meningitidis): ≤ 0.015 µg/mL
- single step mutation frequency (S. pneumoniae [1]; strain 24 Macrolide-R [erm(B)], 2 × MIC): 1.8 × 10^−7
- single step mutation frequency (S. pneumoniae [1]; strain 24 Macrolide-R [erm(B)], 4 × MIC): <5.0 × 10^−9
- single step mutation frequency (S. pneumoniae [1]; strain 24 Macrolide-R [erm(B)], 8 × MIC): <5.0 × 10^−9
- single step mutation frequency (S. pneumoniae [1]; strain 1076 Macrolide-R [erm(B)&mef(A)], 2 × MIC): <2.5 × 10^−8
- single step mutation frequency (S. pneumoniae [1]; strain 1076 Macrolide-R [erm(B)&mef(A)], 4 × MIC): 7.5 × 10^−9
- single step mutation frequency (S. pneumoniae [1]; strain 1076 Macrolide-R [erm(B)&mef(A)], 8 × MIC): 2.0 × 10^−9
- single step mutation frequency (S. pneumoniae [1]; strain 1077 Macrolide-S, 2 × MIC): <9.1 × 10^−9
- single step mutation frequency (S. pneumoniae [1]; strain 1077 Macrolide-S, 4 × MIC): <9.1 × 10^−9
- single step mutation frequency (S. pneumoniae [1]; strain 1077 Macrolide-S, 8 × MIC): <9.1 × 10^−9
- single step mutation frequency (S. pneumoniae [1]; strain 1635 Macrolide-R [erm(A)], 2 × MIC): 1.6 × 10^−8
- single step mutation frequency (S. pneumoniae [1]; strain 1635 Macrolide-R [erm(A)], 4 × MIC): <2.0 × 10^−10
- single step mutation frequency (S. pneumoniae [1]; strain 1635 Macrolide-R [erm(A)], 8 × MIC): <2.0 × 10^−10
- single step mutation frequency (S. pneumoniae [1]; strain 2686 Macrolide-R [L4 mutation], 2 × MIC): <2.5 × 10^−9
- single step mutation frequency (S. pneumoniae [1]; strain 2686 Macrolide-R [L4 mutation], 4 × MIC): <2.5 × 10^−9
- single step mutation frequency (S. pneumoniae [1]; strain 2686 Macrolide-R [L4 mutation], 8 × MIC): <2.5 × 10^−9
- single step mutation frequency (S. pneumoniae [1]; strain 3009 Macrolide-R [23S rRNA mutation], 2 × MIC): <5.9 × 10^−9
- single step mutation frequency (S. pneumoniae [1]; strain 3009 Macrolide-R [23S rRNA mutation], 4 × MIC): <5.9 × 10^−9
- single step mutation frequency (S. pneumoniae [1]; strain 3009 Macrolide-R [23S rRNA mutation], 8 × MIC): <5.9 × 10^−9
- single step mutation frequency (S. pneumoniae [1]; strain 3665 Macrolide-R [mef(A)], 2 × MIC): 6.8 × 10^−7
- single step mutation frequency (S. pneumoniae [1]; strain 3665 Macrolide-R [mef(A)], 4 × MIC): 1.4 × 10^−7
- single step mutation frequency (S. pneumoniae [1]; strain 3665 Macrolide-R [mef(A)], 8 × MIC): <4.5 × 10^−10
- single step mutation frequency (S. pneumoniae [1]; strain 7127 Macrolide-S [S20N in L4, A105V in L22], 2 × MIC): <2.0 × 10^−10
- single step mutation frequency (S. pneumoniae [1]; strain 7127 Macrolide-S [S20N in L4, A105V in L22], 4 × MIC): <2.0 × 10^−10
- single step mutation frequency (S. pneumoniae [1]; strain 7127 Macrolide-S [S20N in L4, A105V in L22], 8 × MIC): <2.0 × 10^−10
- Cs [2]: 4.56 ×MIC
- ED50 (S. pyogenes 3029): 2.5 mg/kg
- PD50 (S. aureus; MRSA): 7.5 mg/kg
- PD50 (S. aureus; MRSA 300 (CA)): 9.5 mg/kg
- PD50 (S. aureus; S. aureus, single oral dose 1 hr post infection): 16.3 mg/kg
- MIC (S. pyogenes; S. pyogenes (erythromycin R)): 1 µg/mL
- MIC (S. pyogenes; S. pyogenes (macrolide susceptible)): 0.015 µg/mL
- average log10 CFU/gram of abscess (S. pneumoniae [3]; 24 hours): about 3 log10 CFU/gram
- average log10 CFU/gram of abscess (S. pneumoniae [3]; 48 hours): about 3 log10 CFU/gram
- log decrease of CFU from untreated mice (S. pneumoniae [3]; abscess, 10 mg/Kg QD dose): 4.2 log10
- Occurrences at MIC (μg/ml) 1 (M. catarrhalis): 0
- Occurrences at MIC (μg/ml) 2 (M. catarrhalis): 0
- Occurrences at MIC (μg/ml) 4 (M. catarrhalis): 0
- Occurrences at MIC (μg/ml) 8 (M. catarrhalis): 0
- Occurrences at MIC (μg/ml) […] (M. catarrhalis): 0
- Occurrences at MIC (μg/ml) ≧16 (M. catarrhalis): 0
- MIC50 (M. catarrhalis; Moraxella catarrhalis): 0.12 µg/mL (≈ 142 nM)
- MIC90 (M. catarrhalis; Moraxella catarrhalis): 0.12 µg/mL (≈ 142 nM)
- MIC (M. catarrhalis; Moraxella catarrhalis, read-out: Occurrences at MIC (μg/ml) 0.03): 1 µg/mL (≈ 1180 nM)
- MIC (M. catarrhalis; Moraxella catarrhalis, read-out: Occurrences at MIC (μg/ml) 0.06): 5 µg/mL (≈ 5920 nM)
- MIC (M. catarrhalis; Moraxella catarrhalis, read-out: Occurrences at MIC (μg/ml) 0.5): 1 µg/mL (≈ 1180 nM)
- MIC (M. catarrhalis; Moraxella catarrhalis, read-out: Occurrences at MIC (μg/ml) ≦0.008): 1 µg/mL (≈ 1180 nM)
- MIC50 [4]: ≤ 8 ng/mL
- MIC90 [4]: 0.06 µg/mL (≈ 71 nM)
- MIC Range [4]: ≦0.008-0.12 μg/ml
- average PAE (H. influenzae ATCC 49247; Gram-negative pathogens): 4.5 h
- PAE (H. influenzae ATCC 49247; H. influenzae ATCC 49247, 4X MIC, exposure 1 hour): 3.2 h
